PubChem BioAssay (NCI)
Several values for one entry are separate records, joined by “and”; a condition that tells them apart may be missing. Identical values can stand only once.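 Assay format: 96-well plates, 48-hour exposure. GI50: concentration for 50% inhibition of growth. Definition used: TGI = concentration required for complete inhibition of growth.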

Assays:
Test in all cases: NCI tumour cell line growth inhibition, 48 h; in the data active = GI50 below about 0.43 µM; inactive = the rest
MDA-MB-435 = tested on: MDA-MB-435
HCT-116 colon = tested on: HCT-116 colon
HOP-62 NSCLC = tested on: HOP-62 NSCLC
MDA-MB-231 breast = tested on: MDA-MB-231 breast
OVCAR-3 ovarian = tested on: OVCAR-3 ovarian
T-47D breast = tested on: T-47D breast
NCI-H522 lung = tested on: NCI-H522 lung
IGROV1 ovarian = tested on: IGROV1 ovarian
HCC-2998 colon = tested on: HCC-2998 colon
HT29 colon = tested on: HT29 colon
SK-MEL-5 melanoma = tested on: SK-MEL-5 melanoma
HL-60(TB) leukemia = tested on: HL-60(TB) leukemia
HS 578T breast = tested on: HS 578T breast
SK-OV-3 ovarian = tested on: SK-OV-3 ovarian
MOLT-4 leukemia = tested on: MOLT-4 leukemia
KM12 colon = tested on: KM12 colon
SK-MEL-28 melanoma = tested on: SK-MEL-28 melanoma
NCI/ADR-RES ovarian = tested on: NCI/ADR-RES ovarian
HCT-15 colon = tested on: HCT-15 colon
SNB-19 CNS = tested on: SNB-19 CNS
ACHN renal = tested on: ACHN renal
MCF7 breast = tested on: MCF7 breast
SK-MEL-2 melanoma = tested on: SK-MEL-2 melanoma
NCI-H23 lung = tested on: NCI-H23 lung
OVCAR-4 ovarian = tested on: OVCAR-4 ovarian
M14 melanoma = tested on: M14 melanoma
NCI-H226 lung = tested on: NCI-H226 lung
RXF 393 renal = tested on: RXF 393 renal
OVCAR-8 ovarian = tested on: OVCAR-8 ovarian
SR leukemia = tested on: SR leukemia
UO-31 renal = tested on: UO-31 renal
RPMI-8226 leukemia = tested on: RPMI-8226 leukemia
HOP-92 NSCLC = tested on: HOP-92 NSCLC
MALME-3M melanoma = tested on: MALME-3M melanoma
K-562 leukemia = tested on: K-562 leukemia
SNB-75 CNS = tested on: SNB-75 CNS
SF-268 CNS = tested on: SF-268 CNS
U251 CNS = tested on: U251 CNS
SF-539 CNS = tested on: SF-539 CNS
786-0 renal = tested on: 786-0 renal
OVCAR-5 ovarian = tested on: OVCAR-5 ovarian
TK-10 renal = tested on: TK-10 renal
SW-620 colon = tested on: SW-620 colon
CAKI-1 renal = tested on: CAKI-1 renal
A498 renal = tested on: A498 renal
UACC-62 melanoma = tested on: UACC-62 melanoma
DU-145 prostate = tested on: DU-145 prostate
SN12C renal = tested on: SN12C renal
CCRF-CEM leukemia = tested on: CCRF-CEM leukemia
SF-295 CNS = tested on: SF-295 CNS
UACC-257 melanoma = tested on: UACC-257 melanoma
LOX IMVI melanoma = tested on: LOX IMVI melanoma
BT-549 breast = tested on: BT-549 breast
COLO 205 colon = tested on: COLO 205 colon
MDA-N = tested on: MDA-N
A549 NSCLC = tested on: A549 NSCLC
PC-3 prostate = tested on: PC-3 prostate
NCI-H460 lung = tested on: NCI-H460 lung
EKVX NSCLC = tested on: EKVX NSCLC

CCCC(=O)Nc1cc(C(=O)N2C[C@@H]3C[C@]34C2=CC(=O)c2[nH]cc(C)c24)n(COC)c1
30 µM and 7.17 µM: TGI (LOX IMVI melanoma)
9.06 µM and 5.87 µM: TGI (OVCAR-8 ovarian)
20.4 µM and 21.5 µM: TGI (KM12 colon)
31.7 µM and 16.1 µM: TGI (SN12C renal)
50 µM and 10.6 µM: TGI (OVCAR-5 ovarian)
10.9 µM: TGI (MALME-3M melanoma)
23 µM and 7.37 µM: TGI (TK-10 renal)
12.2 µM and 3.46 µM: TGI (SK-MEL-2 melanoma)
9.21 µM and 3.33 µM: TGI (RXF 393 renal)
19.6 µM and 13.3 µM: TGI (MDA-N)
34.2 µM and 10.7 µM: TGI (SK-MEL-28 melanoma)
5.38 µM and 3.24 µM: TGI (SK-MEL-5 melanoma)
50 µM and 5.96 µM: TGI (M14 melanoma)
9.19 µM and 3.6 µM: TGI (NCI-H23 lung)
38.2 µM and 27.1 µM: TGI (HS 578T breast)
37.3 µM and 8.36 µM: TGI (RPMI-8226 leukemia)
24.6 µM and 26.1 µM: TGI (ACHN renal)
50 µM and 33.3 µM: TGI (HCT-15 colon)
17.3 µM and 94.4 µM: TGI (UO-31 renal)
inactive: GI50 (MDA-MB-435) 3.19 µM | GI50 (HCT-116 colon) 2.69 µM | GI50 (HOP-62 NSCLC) 2.5 µM | GI50 (MDA-MB-231 breast) 2.94 µM | GI50 (OVCAR-3 ovarian) 2.58 µM | GI50 (T-47D breast) 2.38 µM | GI50 (IGROV1 ovarian) 1.35 µM | GI50 (HCC-2998 colon) 2.88 µM | GI50 (HS 578T breast) 4.31 µM | GI50 (SK-OV-3 ovarian) 4.32 µM | GI50 (MOLT-4 leukemia) 0.523 µM | GI50 (KM12 colon) 4.58 µM | GI50 (SK-MEL-28 melanoma) 3.08 µM | GI50 (NCI/ADR-RES ovarian) 19.7 µM | GI50 (HCT-15 colon) 13.9 µM | GI50 (SNB-19 CNS) 3.36 µM | GI50 (ACHN renal) 3.62 µM | GI50 (SK-MEL-2 melanoma) 1.98 µM | GI50 (NCI-H23 lung) 1.38 µM | GI50 (M14 melanoma) 2.05 µM | GI50 (UO-31 renal) 26.7 µM | GI50 (RPMI-8226 leukemia) 2.57 µM | GI50 (HOP-92 NSCLC) 3.22 µM | GI50 (K-562 leukemia) 2.04 µM | GI50 (SNB-75 CNS) 2.99 µM | GI50 (SF-268 CNS) 3.46 µM | GI50 (U251 CNS) 2.39 µM | GI50 (SF-539 CNS) 2.15 µM | GI50 (786-0 renal) 1.81 µM | GI50 (OVCAR-5 ovarian) 3.86 µM | GI50 (TK-10 renal) 3.3 µM | GI50 (SW-620 colon) 2.7 µM | GI50 (CAKI-1 renal) 4.25 µM | GI50 (UACC-62 melanoma) 2.84 µM | GI50 (DU-145 prostate) 3.18 µM | GI50 (SN12C renal) 4.45 µM | GI50 (CCRF-CEM leukemia) 0.495 µM | GI50 (SF-295 CNS) 5.4 µM | GI50 (UACC-257 melanoma) 3.03 µM | GI50 (LOX IMVI melanoma) 2.06 µM | GI50 (BT-549 breast) 3 µM | GI50 (COLO 205 colon) 1.83 µM | GI50 (MDA-N) 3.66 µM | GI50 (A549 NSCLC) 16.6 µM | GI50 (PC-3 prostate) 2.86 µM | GI50 (NCI-H460 lung) 2.62 µM | GI50 (EKVX NSCLC) 5.62 µM
27.3 µM and 20.9 µM: TGI (DU-145 prostate)
13.5 µM and 8.75 µM: TGI (UACC-62 melanoma)
3.57 µM and 2.43 µM: TGI (NCI-H522 lung)
50 µM and 11.8 µM: TGI (HCT-116 colon)
50 µM and 19.9 µM: TGI (SW-620 colon)
24.6 µM and 29 µM: TGI (HT29 colon)
30.2 µM and 10.6 µM: TGI (T-47D breast)
32.4 µM and 6.62 µM: TGI (UACC-257 melanoma)
50 µM and 47.7 µM: TGI (NCI/ADR-RES ovarian)
50 µM and 8.13 µM: TGI (HOP-62 NSCLC)
20.3 µM and 19.9 µM: TGI (OVCAR-4 ovarian)
16.6 µM and 7.35 µM: TGI (NCI-H460 lung)
29.5 µM and 11.3 µM: TGI (BT-549 breast)
29.5 µM and 8.01 µM: TGI (MDA-MB-231 breast)
11.2 µM and 7.85 µM: TGI (HOP-92 NSCLC)
50 µM and > 100 µM: TGI (K-562 leukemia)
15.2 µM and 3.72 µM: TGI (786-0 renal)
7.8 µM: TGI (HL-60(TB) leukemia)
2.09 µM: TGI (SR leukemia)
30 µM and 25.2 µM: TGI (EKVX NSCLC)
13 µM and 17.3 µM: TGI (CAKI-1 renal)
24.4 µM and 5.09 µM: TGI (OVCAR-3 ovarian)
20.6 µM and 6.21 µM: TGI (U251 CNS)
3.3 µM and 23.2 µM: TGI (MOLT-4 leukemia)
12.9 µM and 4.26 µM: TGI (COLO 205 colon)
37.5 µM and 13.2 µM: TGI (PC-3 prostate)
50 µM and 14.5 µM: TGI (SNB-19 CNS)
50 µM and 11.9 µM: TGI (MCF7 breast)
17.7 µM and 12.3 µM: TGI (SNB-75 CNS)
19.2 µM and 12.5 µM: TGI (MDA-MB-435)
43.8 µM and 17.9 µM: TGI (SK-OV-3 ovarian)
50 µM and 20.4 µM: TGI (SF-295 CNS)
19.2 µM and 25.1 µM: TGI (A498 renal)
10.6 µM and 33.3 µM: TGI (SF-268 CNS)
31.1 µM and 5.28 µM: TGI (SF-539 CNS)
9.71 µM and 10.2 µM: TGI (HCC-2998 colon)
42.1 µM: TGI (NCI-H226 lung)
40.7 µM and 47.9 µM: TGI (A549 NSCLC)

Cc1cc(C)c(P2C(=C(O[Si](C(C)C)(C(C)C)C(C)C)C(C)(C)C)C2(c2ccccc2)c2ccccc2)c(C)c1 (configuration not stated)
> 100 µM: TGI (MDA-MB-435) | TGI (HCT-116 colon) | TGI (HOP-62 NSCLC) | TGI (MDA-MB-231 breast) | TGI (OVCAR-3 ovarian) | TGI (T-47D breast) | TGI (NCI-H522 lung) | TGI (IGROV1 ovarian) | TGI (HCC-2998 colon) | TGI (HT29 colon) | TGI (SK-MEL-5 melanoma) | TGI (HL-60(TB) leukemia) | TGI (HS 578T breast) | TGI (SK-OV-3 ovarian) | TGI (MOLT-4 leukemia) | TGI (KM12 colon) | TGI (SK-MEL-28 melanoma) | TGI (NCI/ADR-RES ovarian) | TGI (HCT-15 colon) | TGI (SNB-19 CNS) | TGI (ACHN renal) | TGI (MCF7 breast) | TGI (SK-MEL-2 melanoma) | TGI (NCI-H23 lung) | TGI (OVCAR-4 ovarian) | TGI (M14 melanoma) | TGI (NCI-H226 lung) | TGI (RXF 393 renal) | TGI (OVCAR-8 ovarian) | TGI (SR leukemia) | TGI (UO-31 renal) | TGI (RPMI-8226 leukemia) | TGI (HOP-92 NSCLC) | TGI (K-562 leukemia) | TGI (SNB-75 CNS) | TGI (SF-268 CNS) | TGI (U251 CNS) | TGI (SF-539 CNS) | TGI (786-0 renal) | TGI (OVCAR-5 ovarian) | TGI (TK-10 renal) | TGI (SW-620 colon) | TGI (CAKI-1 renal) | TGI (A498 renal) | TGI (UACC-62 melanoma) | TGI (DU-145 prostate) | TGI (SN12C renal) | TGI (CCRF-CEM leukemia) | TGI (SF-295 CNS) | TGI (UACC-257 melanoma) | TGI (LOX IMVI melanoma) | TGI (BT-549 breast) | TGI (COLO 205 colon) | TGI (MDA-N) | TGI (A549 NSCLC) | TGI (PC-3 prostate) | TGI (NCI-H460 lung) | TGI (EKVX NSCLC)

O=C1CCC2(CCO1)OCCO2
> 100 µM: TGI (MDA-MB-435) | TGI (HCT-116 colon) | TGI (HOP-62 NSCLC) | TGI (MDA-MB-231 breast) | TGI (OVCAR-3 ovarian) | TGI (T-47D breast) | TGI (NCI-H522 lung) | TGI (IGROV1 ovarian) | TGI (HCC-2998 colon) | TGI (HT29 colon) | TGI (SK-MEL-5 melanoma) | TGI (HL-60(TB) leukemia) | TGI (HS 578T breast) | TGI (SK-OV-3 ovarian) | TGI (MOLT-4 leukemia) | TGI (KM12 colon) | TGI (SK-MEL-28 melanoma) | TGI (NCI/ADR-RES ovarian) | TGI (HCT-15 colon) | TGI (SNB-19 CNS) | TGI (ACHN renal) | TGI (MCF7 breast) | TGI (SK-MEL-2 melanoma) | TGI (NCI-H23 lung) | TGI (OVCAR-4 ovarian) | TGI (M14 melanoma) | TGI (NCI-H226 lung) | TGI (RXF 393 renal) | TGI (OVCAR-8 ovarian) | TGI (SR leukemia) | TGI (UO-31 renal) | TGI (MALME-3M melanoma) | TGI (K-562 leukemia) | TGI (SNB-75 CNS) | TGI (SF-268 CNS) | TGI (U251 CNS) | TGI (SF-539 CNS) | TGI (786-0 renal) | TGI (OVCAR-5 ovarian) | TGI (TK-10 renal) | TGI (SW-620 colon) | TGI (CAKI-1 renal) | TGI (UACC-62 melanoma) | TGI (DU-145 prostate) | TGI (SN12C renal) | TGI (CCRF-CEM leukemia) | TGI (SF-295 CNS) | TGI (UACC-257 melanoma) | TGI (LOX IMVI melanoma) | TGI (BT-549 breast) | TGI (MDA-N) | TGI (A549 NSCLC) | TGI (PC-3 prostate) | TGI (NCI-H460 lung) | TGI (EKVX NSCLC)
